Earlier results in patent US9707273B2, “Peptides for use in the topical treatment of retinal neurodegenerative diseases, in particular in early stages of diabetic retinopathy and other retinal diseases in which neurodegeneration plays an essential role” (FUNDACIÓ HOSPITAL UNIVERSITARI VALL D'HEBRON—INSTITUT DE …, priority 2013, dated 2017).

Conditions: administered in the form of eye drops; Aiello et al. 2008

Cc1cc(-c2cc(O)ccc2Cl)cc2nnc(Nc3ccc(OCCN4CCCC4)cc3)nc12 [TG100572, 4-chloro-3-(5-methyl-3-{[4-(2-pyrrolidin-I-ylethoxy)phenyl]amino}-1,2,4-benzotriazin-7-yl)phenol]
reaching the target in the retina after eye drops: able to reach the target in the retina
